Read-outs that look alike come from different tables or passages of the source.
Columns and labels:
Format in all cases: cell-based
[1] = system: HCV 2b Rluc cells (NS5A chimeric genotype 2a JFH-1 replicon with genotype 2b MD2b-1 NS5A gene, M31 present); test: microbe, parasite or virus in culture; conditions: Hepatitis C virus, read-out: 2b
Procedure, shortened: (§1)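 Replicon cells stably carrying the listed RLuc-encoding dicistronic replicons were seeded and treated with DMSO serial dilutions of compound (10 mM stocks) diluted into culture medium. After 72 h, cells were lysed and Renilla luciferase activity measured. EC50 was derived by non-linear regression.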

[2] = system: HCV 3a RLuc cells (NS5A chimeric genotype 1b Con1 replicon with consensus genotype 3a NS5A gene); test: microbe, parasite or virus in culture; conditions: Hepatitis C virus
Procedure, shortened: as §1

[3] = system: HCV 2a JFH-1 Rluc cells (dicistronic genotype 2a JFH-1 replicon, RLuc reporter); test: microbe, parasite or virus in culture; conditions: Hepatitis C virus, read-out: 2a JFH
Procedure, shortened: (§2)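 Replicons used: genotype 1b Con1, 1a H77, 2a JFH-1, and a 2a JFH-1 chimera with J6-strain NS5A (M31 present), all dicistronic.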

[4] = system: HCV 1a RLuc cells (dicistronic genotype 1a H77 replicon, RLuc reporter); test: microbe, parasite or virus in culture; conditions: Hepatitis C virus, read-out: 1a
Procedure, shortened: as §2

[5] = system: HCV 4a Rluc cells (NS5A chimeric genotype 1b Con1 replicon with genotype 4a NS5A gene); test: microbe, parasite or virus in culture; conditions: Hepatitis C virus, read-out: 4a
Procedure, shortened: as §1

[6] = system: HCV 1b RLuc cells (dicistronic genotype 1b Con1 replicon, RLuc reporter); test: microbe, parasite or virus in culture; conditions: Hepatitis C virus, read-out: 1b (nM)
Procedure, shortened: as §2

[7] = system: HCV 2a Rluc cells (NS5A chimeric genotype 2a JFH-1 replicon with genotype 2a J6 strain NS5A gene, M31 present); test: HCV replicon reporter assay, genotype 2a J6 (M31 present); conditions: Hepatitis C virus, read-out: 2a J6
Procedure, shortened: as §2

[8] = read-out: 3a, genotype 3a NS5A chimeric replicon
[9] = genotype 2a JFH-1 RLuc replicon
[10] = read-out: 3a, Table 1, genotype 3a NS5A chimeric replicon
[11] = 72 h, Table 1, genotype 2a JFH-1 replicon, 72 hours
[12] = 72 h, Table 1, genotype 1a H77 replicon, 72 hours
[13] = read-out: 3a, genotype 3a replicon

SMILES | EC50 [1] [nM] | EC50 [2, 8] [nM] | EC50 [3, 9] [nM] | EC50 ([4]; genotype 1a H77 RLuc replicon) [nM] | EC50 [5] [nM] | EC50 [6] [nM] | EC50 [7] [nM] | EC50 [2, 10] [nM] | EC50 [3, 11] [nM] | EC50 [4, 12] [nM] | EC50 ([6]; 72 h) [nM] | EC50 [2, 13] [nM] | EC50 ([3]; genotype 2a JFH-1 replicon) [nM] | EC50 ([4]; genotype 1a replicon) [nM]
O=C(N[C@@H](C(=O)N1CCC[C@H]1c1ncc(-c2cc3c4c(c2)OCc2cc(-c5cnc([C@@H]6CCCN6C(=O)[C@H](NC(=O)c6ccncn6)c6ccccc6)[nH]5)cc(c2-4)OC3)[nH]1)c1ccccc1)c1ccncn1 [Example 491] | 0.001 to 0.999 | 0.001 to 0.99 | 0.001 to 0.999 | 0.001 to 0.999 | 0.001 to 0.99 | 0.066 | 0.001 to 0.999 | – | – | – | – | – | – | –
COC(=O)N[C@H](C(=O)N1CCC[C@H]1c1ncc(-c2ccc3c4c(ccc3c2)-c2ccc(-c3cnc([C@@H]5CCCN5C(=O)[C@H](NC(=O)OC)c5ccccc5)[nH]3)cc2CO4)[nH]1)C1CCOCC1 [Example 13] | 0.001 to 0.999 | – | – | – | 0.001 to 0.99 | – | 1 to 44 | 0.001 to 0.99 | 0.001 to 0.999 | 0.001 to 0.999 | 0.015 | – | – | –
COC[C@H]1C[C@@H](c2nc3ccc4cc(-c5ccc(-c6cnc([C@@H]7CCCN7C(=O)[C@H](NC(=O)CN(C)C)c7ccccc7)[nH]6)cc5)ccc4c3[nH]2)N(C(=O)[C@@H](NC(=O)OC)C(C)C)C1 [Example 476] | 0.001 to 0.999 | – | – | – | 0.001 to 0.99 | 0.099 | 0.001 to 0.999 | – | – | – | – | 0.001 to 0.99 | 0.001 to 0.999 | 0.001 to 0.999
COC[C@H]1C[C@@H](c2ncc(-c3ccc(-c4ccc5c(ccc6nc([C@@H]7CCCN7C(=O)[C@H](NC(=O)OC)c7ccccc7)[nH]c65)c4)cc3)[nH]2)N(C(=O)[C@@H](NC(=O)OC)C(C)C)C1 [Example 442] | 0.001 to 0.999 | – | – | – | 0.001 to 0.99 | 0.029 | 0.001 to 0.999 | – | – | – | – | 0.001 to 0.99 | 0.001 to 0.999 | 0.001 to 0.999
CC(C)[C@H](NC(=O)OC(C)(C)C)C(=O)N[C@@H](C(=O)N1CCC[C@H]1c1ncc(-c2cc3c4c(c2)OCc2cc(-c5cnc([C@@H]6CCCN6C(=O)[C@H](NC(=O)[C@@H](NC(=O)OC(C)(C)C)C(C)C)c6ccccc6)[nH]5)cc(c2-4)OC3)[nH]1)c1ccccc1 [Example 485] | > 44 | – | – | – | 0.001 to 0.99 | 0.17 | > 44 | – | – | – | – | 0.001 to 0.99 | 0.001 to 0.999 | 1 to 44
COC(=O)N[C@H](C(=O)N1C[C@@H](C)C[C@H]1c1ncc(-c2cc3c4c(c2)OCc2cc(-c5cnc([C@@H]6C[C@H](C)CN6C(=O)[C@H](NC(=O)C6C(C)(C)C6(C)C)c6ccccc6)[nH]5)cc(c2-4)OC3)[nH]1)C(C)C [Example 577] | 1 to 44 | 0.001 to 0.99 | 0.001 to 0.999 | 0.001 to 0.999 | 0.001 to 0.99 | 0.017 | > 44 | – | – | – | – | – | – | –
COC(=O)N[C@H](C(=O)N1CCC[C@H]1c1nc(Cl)c(-c2ccc(-c3ccc4c(ccc5nc([C@@H]6[C@H]7CC[C@H](C7)N6C(=O)[C@@H](NC(=O)OC)C(C)C)[nH]c54)c3)cc2)[nH]1)C(C)C [Example 386] | > 44 | – | – | – | 0.001 to 0.99 | 0.015 | > 44 | – | – | – | – | 0.001 to 0.99 | 0.001 to 0.999 | 0.001 to 0.999
CCC(=O)N[C@@H](C(=O)N1CCC[C@H]1c1ncc(-c2cc3c4c(c2)OCc2cc(-c5cnc([C@@H]6CCCN6C(=O)[C@H](NC(=O)CC)c6ccccc6)[nH]5)cc(c2-4)OC3)[nH]1)c1ccccc1 [Example 450] | 0.001 to 0.999 | – | – | – | 0.001 to 0.99 | 0.427 | 0.001 to 0.999 | – | – | – | – | 0.001 to 0.99 | 0.001 to 0.999 | 0.001 to 0.999
COC(=O)N[C@H](C(=O)N1CCC[C@H]1c1ncc(-c2ccc3c4c(ccc3c2)-c2ccc(-c3cnc([C@@H]5CCCN5C(=O)[C@H](NC(=O)OC)c5ccccc5)[nH]3)cc2CO4)[nH]1)C(C)C [Example 1] | > 44 | – | – | – | 0.001 to 0.99 | – | > 44 | 0.001 to 0.99 | 0.001 to 0.999 | 0.001 to 0.999 | 0.008 | – | – | –
COC(=O)N[C@H](C(=O)N1CCC[C@H]1c1nc2ccc3cc(-c4ccc(-c5[nH]c([C@@H]6[C@H]7CC[C@H](C7)N6C(=O)[C@@H](NC(=O)OC)C(C)C)nc5Cl)cc4)ccc3c2[nH]1)C(C)C [Example 388] | > 44 | – | – | – | 0.001 to 0.99 | 0.008 | > 44 | – | – | – | – | 0.001 to 0.99 | 0.001 to 0.999 | 0.001 to 0.999

Reference: patent publication US10344019B2 (priority 2010, dated 2019)
